The NIST ThermoML archive (doi:10.1021/je700260f)

Settings: Liquid, Vibrating tube method

FC(C(F)(F)F)C(F)(F)F [1,1,1,2,3,3,3-heptafluoropropane]
Settings	mass density [kg/m3]
323.14 K, 26341 kPa	1449.9
323.14 K, 26367 kPa	1450.1
323.14 K, 26395 kPa	1450.2
323.14 K, 26427 kPa	1450.3
323.14 K, 26451 kPa	1450.5
323.14 K, 26475 kPa	1450.5
323.14 K, 26513 kPa	1450.7
323.14 K, 26548 kPa	1450.8
323.14 K, 26575 kPa	1450.8
323.14 K, 26605 kPa	1451
323.14 K, 26630 kPa	1451.2
323.14 K, 26654 kPa	1451.3
323.14 K, 26689 kPa	1451.4
323.14 K, 26725 kPa	1451.6
323.14 K, 26749 kPa	1451.6
323.14 K, 26779 kPa	1451.8
323.14 K, 26810 kPa	1451.9
323.14 K, 26834 kPa	1451.9
323.14 K, 26866 kPa	1452.2
323.14 K, 26907 kPa	1452.2
323.14 K, 26931 kPa	1452.3
323.14 K, 26964 kPa	1452.5
323.14 K, 26991 kPa	1452.7
323.14 K, 27019 kPa	1452.7
323.14 K, 27049 kPa	1452.9
323.14 K, 27086 kPa	1452.9
323.14 K, 27111 kPa	1453.1
323.14 K, 27141 kPa	1453.2
323.14 K, 27170 kPa	1453.4
323.14 K, 27208 kPa	1453.4
323.14 K, 27239 kPa	1453.6
323.14 K, 27261 kPa	1453.7
323.14 K, 27301 kPa	1453.9
323.14 K, 27337 kPa	1453.9
323.14 K, 27364 kPa	1454.2
323.14 K, 27407 kPa	1454.4
323.14 K, 27446 kPa	1454.5
323.14 K, 29221 kPa	1461.5
323.14 K, 29254 kPa	1461.6
323.14 K, 29283 kPa	1461.7
323.14 K, 29320 kPa	1461.9
323.14 K, 29357 kPa	1462
323.14 K, 29386 kPa	1462.2
323.14 K, 29420 kPa	1462.2
323.14 K, 29450 kPa	1462.4
323.14 K, 29481 kPa	1462.5
323.14 K, 29512 kPa	1462.7
323.14 K, 29551 kPa	1462.8
323.14 K, 29581 kPa	1462.9
323.14 K, 29617 kPa	1463.1
323.14 K, 29647 kPa	1463.3
323.14 K, 29673 kPa	1463.3
323.14 K, 29712 kPa	1463.4
323.14 K, 30912 kPa	1468
323.14 K, 30939 kPa	1468.2
323.14 K, 30970 kPa	1468.1
323.14 K, 31016 kPa	1468.3
323.14 K, 31057 kPa	1468.4
323.14 K, 31085 kPa	1468.6
323.14 K, 31126 kPa	1468.7
323.14 K, 31158 kPa	1468.9
323.14 K, 31190 kPa	1468.9
323.14 K, 31227 kPa	1469.2
323.14 K, 31260 kPa	1469.2
323.14 K, 31289 kPa	1469.4
323.14 K, 31322 kPa	1469.5
323.14 K, 31350 kPa	1469.7
323.14 K, 31393 kPa	1469.8
323.14 K, 31427 kPa	1469.8
323.14 K, 31456 kPa	1469.9
323.14 K, 31496 kPa	1470.1
323.14 K, 31525 kPa	1470.2
323.14 K, 31560 kPa	1470.3
323.14 K, 31593 kPa	1470.5
323.14 K, 31631 kPa	1470.6
323.14 K, 31664 kPa	1470.7
323.14 K, 31692 kPa	1470.8
323.14 K, 31727 kPa	1470.8
323.14 K, 31759 kPa	1471.1
323.14 K, 31798 kPa	1471.2
323.14 K, 31833 kPa	1471.3
323.14 K, 31867 kPa	1471.5
323.14 K, 31900 kPa	1471.6
323.14 K, 31935 kPa	1471.8
323.14 K, 31970 kPa	1471.9
323.14 K, 32005 kPa	1472.1
323.14 K, 32035 kPa	1472.1
323.14 K, 32074 kPa	1472.2
323.14 K, 32106 kPa	1472.4
323.14 K, 32145 kPa	1472.5
323.14 K, 32183 kPa	1472.7
323.14 K, 32213 kPa	1472.9
323.14 K, 32256 kPa	1472.9
323.14 K, 32290 kPa	1473
323.14 K, 32334 kPa	1473.2
323.14 K, 32359 kPa	1473.2
323.14 K, 32392 kPa	1473.5
323.14 K, 32426 kPa	1473.5
323.14 K, 32453 kPa	1473.6
323.14 K, 32494 kPa	1473.7
323.14 K, 32530 kPa	1473.9
323.14 K, 32562 kPa	1474.1
323.14 K, 32595 kPa	1474.2
323.14 K, 32625 kPa	1474.2
323.14 K, 32718 kPa	1474.5
323.14 K, 32751 kPa	1474.7
323.14 K, 32788 kPa	1474.8
323.14 K, 32825 kPa	1475.1
323.14 K, 32856 kPa	1475.1
323.14 K, 32888 kPa	1475.2
323.14 K, 32921 kPa	1475.3
323.14 K, 32953 kPa	1475.5
323.14 K, 32985 kPa	1475.4
323.14 K, 33019 kPa	1475.7
323.14 K, 33051 kPa	1475.7
323.14 K, 33084 kPa	1475.8
323.14 K, 33112 kPa	1476.1
323.14 K, 33140 kPa	1476.1
323.14 K, 33174 kPa	1476.3
323.14 K, 33204 kPa	1476.4
323.14 K, 33237 kPa	1476.4
323.14 K, 33283 kPa	1476.6
323.14 K, 33320 kPa	1476.7
323.14 K, 33348 kPa	1476.8
323.14 K, 33380 kPa	1477
323.14 K, 33409 kPa	1477.2
323.14 K, 33451 kPa	1477.2
323.14 K, 33480 kPa	1477.5
323.14 K, 33527 kPa	1477.5
323.14 K, 33556 kPa	1477.6
323.14 K, 33594 kPa	1477.8
323.14 K, 33624 kPa	1477.9
323.14 K, 33659 kPa	1477.9
323.14 K, 33689 kPa	1477.9
323.14 K, 33733 kPa	1478.3
323.14 K, 33772 kPa	1478.3
323.14 K, 33801 kPa	1478.4
323.14 K, 33844 kPa	1478.5
323.14 K, 33873 kPa	1478.6
323.14 K, 33912 kPa	1478.8
323.14 K, 33947 kPa	1479
323.14 K, 33988 kPa	1479.1
323.14 K, 34019 kPa	1479.2
323.14 K, 34056 kPa	1479.3
323.14 K, 34088 kPa	1479.4
323.14 K, 34126 kPa	1479.7
323.14 K, 34164 kPa	1479.7
323.14 K, 34203 kPa	1479.9
323.14 K, 34254 kPa	1480
323.14 K, 34287 kPa	1480.1
323.14 K, 34318 kPa	1480.4
323.14 K, 34333 kPa	1480.4
323.14 K, 34347 kPa	1480.4
323.14 K, 34355 kPa	1480.4
323.14 K, 34365 kPa	1480.4
323.14 K, 34376 kPa	1480.5
323.14 K, 34382 kPa	1480.5
323.15 K, 2690 kPa	1295.1
323.15 K, 2710 kPa	1295.4
323.15 K, 2730 kPa	1295.6
323.15 K, 2750 kPa	1295.9
323.15 K, 2770 kPa	1296.1
323.15 K, 2790 kPa	1296.3
323.15 K, 2810 kPa	1296.6
323.15 K, 2860 kPa	1297.2
323.15 K, 3610 kPa	1305.8
323.15 K, 5700 kPa	1326.8
323.15 K, 5730 kPa	1327.1
323.15 K, 5750 kPa	1327.2
323.15 K, 5780 kPa	1327.6
323.15 K, 5810 kPa	1327.8
323.15 K, 5830 kPa	1328.1
323.15 K, 5860 kPa	1328.3
323.15 K, 5890 kPa	1328.7
323.15 K, 5920 kPa	1329.1
323.15 K, 5940 kPa	1329
323.15 K, 7941 kPa	1346.2
323.15 K, 7982 kPa	1346.7
323.15 K, 8005 kPa	1346.8
323.15 K, 8337 kPa	1349.4
323.15 K, 8351 kPa	1349.6
323.15 K, 8369 kPa	1349.8
323.15 K, 8474 kPa	1350.5
323.15 K, 8495 kPa	1350.7
323.15 K, 8516 kPa	1350.8
323.15 K, 8532 kPa	1351
323.15 K, 8553 kPa	1351.1
323.15 K, 8569 kPa	1351.3
323.15 K, 8597 kPa	1351.5
323.15 K, 8616 kPa	1351.8
323.15 K, 8637 kPa	1351.8
323.15 K, 8653 kPa	1351.9
323.15 K, 8674 kPa	1352.2
323.15 K, 8690 kPa	1352.3
323.15 K, 8713 kPa	1352.5
323.15 K, 8731 kPa	1352.6
323.15 K, 8753 kPa	1352.6
323.15 K, 8776 kPa	1352.9
323.15 K, 8792 kPa	1353.1
323.15 K, 8817 kPa	1353.1
323.15 K, 8836 kPa	1353.4
323.15 K, 8858 kPa	1353.5
323.15 K, 8877 kPa	1353.6
323.15 K, 8898 kPa	1353.8
323.15 K, 9724 kPa	1360
